According to patent publication US9567302B2, “Carbamate compounds and of making and using same” (Abide Therapeutics, Inc., priority 2012, dated 2017):

Tests used:
Format in all cases: biochemical
Parameters in all cases: from tissue; host or cells: mouse brain membrane fraction
FAAH = molecular target: T1, FAAH (Mus musculus, UniProt O08914); experiment: In vitro competitive activity-based protein profiling (FP-Rh), mouse FAAH; conditions: Table 1, mouse proteome, 30 min preincubation at 37° C.
T1 sequence (O08914 1-579): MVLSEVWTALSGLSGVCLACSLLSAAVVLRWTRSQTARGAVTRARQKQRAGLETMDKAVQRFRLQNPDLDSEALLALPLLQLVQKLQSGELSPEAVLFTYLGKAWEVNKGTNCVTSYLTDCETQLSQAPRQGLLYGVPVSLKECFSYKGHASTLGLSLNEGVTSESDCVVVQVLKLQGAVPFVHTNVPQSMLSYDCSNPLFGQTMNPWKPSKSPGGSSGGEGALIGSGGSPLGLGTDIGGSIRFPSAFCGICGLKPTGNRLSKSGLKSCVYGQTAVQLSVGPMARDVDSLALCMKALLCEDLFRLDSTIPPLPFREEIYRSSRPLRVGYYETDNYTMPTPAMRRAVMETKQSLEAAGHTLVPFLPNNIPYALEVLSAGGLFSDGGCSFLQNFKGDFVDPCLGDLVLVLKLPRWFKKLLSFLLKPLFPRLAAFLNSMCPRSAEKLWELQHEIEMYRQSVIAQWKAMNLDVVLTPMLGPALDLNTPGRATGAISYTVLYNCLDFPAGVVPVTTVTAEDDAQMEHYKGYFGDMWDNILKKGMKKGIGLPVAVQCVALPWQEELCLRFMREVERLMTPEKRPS
Protocol: (§1) In Vitro Competitive Activity-Based Protein Profiling.
(§2) Proteomes (mouse brain membrane fraction or cell lysates) (50 μL, 1.0 mg/ml total protein concentration) were preincubated with varying concentrations of inhibitors at 37° C. After 30 min, FP-Rh (1.0 μL, 50 μM in DMSO) was added and the mixture was incubated for another 30 min at 37° C. Reactions were quenched with SDS loading buffer (50 μL—4×) and run on SDS-PAGE.

ABHD6 = molecular target: T2, ABHD6 (Mus musculus, UniProt Q8R2Y0); experiment: In vitro competitive activity-based protein profiling (FP-Rh), mouse ABHD6; conditions: Table 1, mouse proteome, 30 min preincubation at 37° C.
T2 sequence (Q8R2Y0 1-336): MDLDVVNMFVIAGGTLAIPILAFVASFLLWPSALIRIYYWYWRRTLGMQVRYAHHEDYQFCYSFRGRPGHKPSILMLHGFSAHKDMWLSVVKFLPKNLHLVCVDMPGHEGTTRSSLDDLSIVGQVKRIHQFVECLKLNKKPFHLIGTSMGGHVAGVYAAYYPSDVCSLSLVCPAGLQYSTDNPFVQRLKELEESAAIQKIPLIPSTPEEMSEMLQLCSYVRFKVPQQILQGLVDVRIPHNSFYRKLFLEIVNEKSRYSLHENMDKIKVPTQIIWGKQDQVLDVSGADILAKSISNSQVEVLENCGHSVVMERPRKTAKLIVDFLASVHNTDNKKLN
Protocol: as §1, §2

MAGL = molecular target: T3, MAGL (Mus musculus, UniProt O35678); experiment: In vitro competitive activity-based protein profiling (FP-Rh), mouse MAGL; conditions: 30 min preincubation at 37° C.
T3 sequence (O35678 1-303): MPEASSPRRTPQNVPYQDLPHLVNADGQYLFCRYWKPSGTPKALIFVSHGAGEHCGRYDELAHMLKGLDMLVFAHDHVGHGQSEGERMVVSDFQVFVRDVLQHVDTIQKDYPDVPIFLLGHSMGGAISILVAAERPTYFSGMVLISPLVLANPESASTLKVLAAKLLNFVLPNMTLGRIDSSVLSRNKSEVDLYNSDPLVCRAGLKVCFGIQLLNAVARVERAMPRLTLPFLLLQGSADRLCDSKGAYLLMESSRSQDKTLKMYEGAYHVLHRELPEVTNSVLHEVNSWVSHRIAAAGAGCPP
Protocol: as §1, §2

IC50 (FAAH) | IC50 (ABHD6) | IC50 (MAGL; Table 1, mouse proteome) | IC50 (MAGL; Table 2, mouse proteome) | SMILES
> 10000 nM | 100 to 1000 nM | 1000 to 10000 nM |  | CN(Cc1cccc(-c2ccncc2)c1)C(=O)ON1C(=O)CCC1=O [Example 12, 2,5-Dioxopyrrolidin-1-yl N-methyl-N-{[3-(pyridin-4-yl)phenyl]methyl}carbamate]
> 10000 nM | > 10000 nM | > 10000 nM |  | CN(Cc1cccc(-c2cccnc2)c1)C(=O)ON1C(=O)CCC1=O [Example 13, 2,5-Dioxopyrrolidin-1-yl N-methyl-N-{[3-(pyridin-3-yl)phenyl]methyl}carbamate]
> 10000 nM |  | > 10000 nM |  | O=C(ON1C(=O)CCC1=O)N1CCCCC1 [Example 17, 2,5-Dioxopyrrolidin-1-yl piperidine-1-carboxylate]
> 10000 nM | > 10000 nM | > 10000 nM |  | CCCN(Cc1ccc(N2CCCCC2)cc1)C(=O)ON1C(=O)CCC1=O [Example 19, 2,5-Dioxopyrrolidin-1-yl N-{[4-(piperidin-1-yl)phenyl]methyl}-N-propylcarbamate]
1000 to 10000 nM | 100 to 1000 nM | 100 to 1000 nM |  | O=C(ON1C(=O)CCC1=O)N1CCC(Cc2ccccc2)CC1 [Example 21, 2,5-Dioxopyrrolidin-1-yl 4-benzylpiperidine-1-carboxylate]
> 10000 nM | > 10000 nM | > 10000 nM |  | O=C1CCC(=O)N1OC(=O)N1CCCCC1c1ccccc1 (centres unmarked) [Example 23, 2,5-Dioxopyrrolidin-1-yl 2-phenylpiperidine-1-carboxylate]
> 10000 nM | > 10000 nM | > 10000 nM |  | O=C1CCC(=O)N1OC(=O)N1CCCCC1CCc1ccccc1 (centres unmarked) [Example 25, 2,5-Dioxopyrrolidin-1-yl 2-(2-phenylethyl)piperidine-1-carboxylate]
 |  |  | 1000 to 10000 nM | Cc1cc(N2CCOCC2)ccc1CN1CCN(C(=O)ON2C(=O)CCC2=O)CC1 [Example 63, 2,5-Dioxopyrrolidin-1-yl 4-(2-methyl-4-morpholinobenzyl)piperazine-1-carboxylate]
 |  |  | 100 to 1000 nM | O=C(ON1C(=O)CCC1=O)N1CCN(Cc2ccc(Cl)cc2)CC1 [Example 64, 2,5-Dioxopyrrolidin-1-yl 4-(4-chlorobenzyl)piperazine-1-carboxylate]
 |  |  | < 100 nM | O=C(ON1C(=O)CCC1=O)N1CCN(Cc2ccc(Br)cc2N2CCCC2)CC1 [Example 72, 2,5-Dioxopyrrolidin-1-yl 4-(4-bromo-2-(pyrrolidin-1-yl)benzyl)piperazine-1-carboxylate]
 |  |  | 100 to 1000 nM | CC1CN(C(=O)ON2C(=O)CCC2=O)CCN1Cc1ccc(-c2ccccc2)cc1 (centres unmarked) [Example 160, 2,5-Dioxopyrrolidin-1-yl 3-methyl-4-[(4-phenylphenyl)methyl]piperazine-1-carboxylate]

More lines, now with the values behind:

SMILES | IC50 (FAAH) | IC50 (ABHD6) | IC50 (MAGL; Table 1, mouse proteome) | IC50 (MAGL; Table 2, mouse proteome)
O=C(ON1C(=O)CCC1=O)N1CCN(C(c2ccc(Cl)cc2)c2ccc(Cl)cc2)CC1 [Example 2, 2,5-Dioxopyrrolidin-1-yl 4-[bis(4-chlorophenyl)methyl]piperazine-1-carboxylate] | > 10000 nM | 100 to 1000 nM |  | 
CC(C)(C)OC(=O)N1CCN(C(=O)ON2C(=O)CCC2=O)CC1 [Example 4, 1-tert-Butyl 4-(2,5-dioxopyrrolidin-1-yl) piperazine-1,4-dicarboxylate] | > 10000 nM | > 10000 nM | > 10000 nM | 
O=C(NCCc1ccc(Oc2ccccc2)cc1)ON1C(=O)CCC1=O [Example 6, 2,5-Dioxopyrrolidin-1-yl N-[2-(4-phenoxyphenyl)ethyl]carbamate] | 100 to 1000 nM | > 10000 nM | > 10000 nM | 
CCN(Cc1ccccc1)C(=O)ON1C(=O)CCC1=O [Example 9, 2,5-Dioxopyrrolidin-1-yl N-benzyl-N-ethylcarbamate] | > 10000 nM | > 10000 nM | > 10000 nM | 
CC1CCCCN1C(=O)ON1C(=O)CCC1=O (centres unmarked) [Example 10, 2,5-Dioxopyrrolidin-1-yl 2-methylpiperidine-1-carboxylate] | > 10000 nM | > 10000 nM | > 10000 nM | 
O=C1CCC(=O)N1OC(=O)N1CCCCC1CO (centres unmarked) [Example 11, 2,5-Dioxopyrrolidin-1-yl 2-(hydroxymethyl)piperidine-1-carboxylate] | > 10000 nM | > 10000 nM | > 10000 nM | 
Cc1nc(-c2cccc(CN(C)C(=O)ON3C(=O)CCC3=O)c2)no1 [Example 14, 2,5-Dioxopyrrolidin-1-yl N-methyl-N-{[3-(5-methyl-1,2,4-oxadiazol-3-yl)phenyl]methyl}carbamate] | > 10000 nM | 100 to 1000 nM | 1000 to 10000 nM | 
CN(CCc1ccccc1)C(=O)ON1C(=O)CCC1=O [Example 15, 2,5-Dioxopyrrolidin-1-yl N-methyl-N-(2-phenylethyl)carbamate] | > 10000 nM | > 10000 nM | > 10000 nM | 
O=C(C1CCCCN1C(=O)ON1C(=O)CCC1=O)N1CCOCC1 (centres unmarked) [Example 16, 2,5-Dioxopyrrolidin-1-yl 2-(morpholine-4-carbonyl)piperidine-1-carboxylate] | > 10000 nM | > 10000 nM | > 10000 nM | 
Cc1cc(N2CCN(C(=O)ON3C(=O)CCC3=O)CC2)c2ccccc2n1 [Example 18, 2,5-Dioxopyrrolidin-1-yl 4-(2-methylquinolin-4-yl)piperazine-1-carboxylate] | > 10000 nM | 1000 to 10000 nM | 100 to 1000 nM | 
O=C(NC1CCCc2ccccc21)ON1C(=O)CCC1=O (centres unmarked) [Example 20, 2,5-Dioxopyrrolidin-1-yl N-(1,2,3,4-tetrahydronaphthalen-1-yl)carbamate] | > 10000 nM | > 10000 nM | > 10000 nM | 
O=C1CCC(=O)N1OC(=O)N1CCCCC1Cc1ccccc1 (centres unmarked) [Example 22, 2,5-Dioxopyrrolidin-1-yl 2-benzylpiperidine-1-carboxylate] | > 10000 nM | > 10000 nM | > 10000 nM | 
O=C1CCC(=O)N1OC(=O)N1CCCCC1C(F)(F)F (centres unmarked) [Example 24, 2,5-Dioxopyrrolidin-1-yl 2-(trifluoromethyl)piperidine-1-carboxylate] | > 10000 nM | > 10000 nM | > 10000 nM | 
C#CCCC(=O)N1CCN(C(=O)ON2C(=O)CCC2=O)CC1 [Example 26, 2,5-Dioxopyrrolidin-1-yl 4-(pent-4-ynoyl)piperazine-1-carboxylate] | > 10000 nM | > 10000 nM | > 10000 nM | 
O=C(NCCc1ccc2ccccc2c1)ON1C(=O)CCC1=O [Example 27, 2,5-Dioxopyrrolidin-1-yl N-[2-(naphthalen-2-yl)ethyl]carbamate] |  | > 10000 nM | > 10000 nM | 
O=C(ON1C(=O)CCC1=O)N1CC[C@@H](OCc2ccccc2)C1 [Example 39, 2,5-Dioxopyrrolidin-1-yl (3R)-3-(benzyloxy)pyrrolidine-1-carboxylate] | > 10000 nM |  | > 10000 nM | 
O=C(ON1C(=O)CCC1=O)N1CC[C@H](OCc2ccccc2)C1 [Example 40, 2,5-Dioxopyrrolidin-1-yl (3S)-3-(benzyloxy)pyrrolidine-1-carboxylate] | > 10000 nM |  | > 10000 nM | 
CN(C)C(=O)ON1C(=O)CNC1=O [Example 58, 2,5-Dioxoimidazolidin-1-yl dimethylcarbamate] | > 10000 nM |  |  | 
CC1CN(C(=O)ON2C(=O)CCC2=O)CCN1C(c1ccc(Cl)cc1)c1ccc(Cl)cc1 (centres unmarked) [Example 151, 2,5-Dioxopyrrolidin-1-yl 4-[bis(4-chlorophenyl)methyl]-3-methylpiperazine-1-carboxylate] |  |  |  | 100 to 1000 nM
O=C(ON1C(=O)CCC1=O)N1CCN(Cc2ccc(-c3ccccc3)cc2N2CCOCC2)CC1 [Example 161, 2,5-Dioxopyrrolidin-1-yl 4-((3-morpholino-[1,1′-biphenyl]-4-yl)methyl)piperazine-1-carboxylate] |  |  |  | 100 to 1000 nM
